The source of these data is patent US9120812B2, “Pyrimidooxazocine derivatives as mTOR-inhibitors” (SANOFI, priority 2012, dated 2015).

One experiment relates to Akt-pS473 in U87MG cells. As to conditions: Homo sapiens, U-87 MG, read-out: U87 Akt-pS473 % Inhibition or IC50, nM (IC50), U87MG cells.
The subject of the next experiment is U87MG tumour cells. The experiment in a line: Test of in vitro proliferation of U87MG tumour cells. Format: cell-based. The conditions noted are these: Homo sapiens, U-87 MG, 72 h, U87MG cells, 72 hours; read-out: U87 Cell Proliferation IC50. The protocol: Model 4: Test of in vitro Proliferation of U87MG Tumour Cells.
The cell growth is determined with the reagent CellTiter 96 AQueous One Solution Cell Proliferation Assay from Promega (Cat. No. G3581).

Experiment [1] addresses mTOR (human recombinant aa mTOR 1360-2549) (Homo sapiens (Human), UniProt P42345). The experiment in a line: mTOR enzymatic test by TR-FRET (phosphorylation of GFP-4EBP1). Format: biochemical. In outline: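 After a 30 min room-temperature kinase reaction, EDTA (10 mM final) and Tb-labelled phospho-Thr46 antibody (2 nM final) were added and incubated 60 min. Energy transfer from Tb to phosphorylated GFP-4EBP1 was read at 340 nm excitation, emissions 490/520 nm. Values derive from the 520/490 fluorescence ratio.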
A general note: In TR-FRET formats the signal depends on donor and acceptor labels being close together.

In the next experiment the target is PI3Kα (p110α/p85α) (Homo sapiens (Human), UniProt P42336). Briefly: PI3Kα enzymatic test by measuring the consumption of ATP. The experiment is classed as biochemical. An outline of the steps:
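ATP consumption read out by KinaseGlo luminescence after a 90 min reaction of 1.7 μg/ml PI3Kα (p110α/p85α) with 2 μM ATP and 50 μM PIP2, buffered at pH 7.5 (Tris, 10 mM MgCl2, 1 mM EGTA, 0.03% Chaps, 1 mM DTT). Threefold dilution series over ≥10 000-fold range yield IC50.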

The structures appear in SMILES notation. pIC50: −log10 of the molar value.

Sequence of PI3Kα (p110α/p85α) (P42336 whole entry): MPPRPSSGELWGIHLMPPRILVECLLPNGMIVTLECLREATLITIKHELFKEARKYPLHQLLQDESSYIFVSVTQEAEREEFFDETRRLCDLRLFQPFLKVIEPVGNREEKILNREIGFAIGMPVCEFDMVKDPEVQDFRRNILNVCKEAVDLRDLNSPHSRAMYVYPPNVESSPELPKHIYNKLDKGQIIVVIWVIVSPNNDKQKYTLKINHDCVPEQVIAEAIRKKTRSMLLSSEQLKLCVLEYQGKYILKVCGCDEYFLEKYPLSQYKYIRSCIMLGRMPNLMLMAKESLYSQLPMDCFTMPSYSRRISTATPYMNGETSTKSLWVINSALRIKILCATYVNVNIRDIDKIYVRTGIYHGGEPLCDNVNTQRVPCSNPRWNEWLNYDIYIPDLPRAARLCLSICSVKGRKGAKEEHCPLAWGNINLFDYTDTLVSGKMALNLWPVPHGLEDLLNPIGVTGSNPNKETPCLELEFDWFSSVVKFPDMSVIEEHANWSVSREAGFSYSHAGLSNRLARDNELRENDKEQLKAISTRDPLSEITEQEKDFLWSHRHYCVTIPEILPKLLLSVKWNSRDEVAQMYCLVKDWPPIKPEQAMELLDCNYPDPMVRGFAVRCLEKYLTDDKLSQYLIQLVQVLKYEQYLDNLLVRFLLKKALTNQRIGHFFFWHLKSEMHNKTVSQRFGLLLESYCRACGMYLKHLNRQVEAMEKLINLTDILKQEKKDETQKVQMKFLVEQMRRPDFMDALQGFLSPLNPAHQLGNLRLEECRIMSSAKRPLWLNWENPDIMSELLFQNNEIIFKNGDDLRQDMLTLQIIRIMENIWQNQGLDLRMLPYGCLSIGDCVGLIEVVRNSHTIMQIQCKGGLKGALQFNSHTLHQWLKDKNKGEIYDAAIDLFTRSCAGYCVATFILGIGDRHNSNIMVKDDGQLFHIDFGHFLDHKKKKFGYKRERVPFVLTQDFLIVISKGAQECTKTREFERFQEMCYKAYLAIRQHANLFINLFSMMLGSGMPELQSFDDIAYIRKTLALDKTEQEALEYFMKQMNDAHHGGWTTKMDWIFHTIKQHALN
Sequence of PI3Kα (p110α/p85α) (P27986 whole entry partner): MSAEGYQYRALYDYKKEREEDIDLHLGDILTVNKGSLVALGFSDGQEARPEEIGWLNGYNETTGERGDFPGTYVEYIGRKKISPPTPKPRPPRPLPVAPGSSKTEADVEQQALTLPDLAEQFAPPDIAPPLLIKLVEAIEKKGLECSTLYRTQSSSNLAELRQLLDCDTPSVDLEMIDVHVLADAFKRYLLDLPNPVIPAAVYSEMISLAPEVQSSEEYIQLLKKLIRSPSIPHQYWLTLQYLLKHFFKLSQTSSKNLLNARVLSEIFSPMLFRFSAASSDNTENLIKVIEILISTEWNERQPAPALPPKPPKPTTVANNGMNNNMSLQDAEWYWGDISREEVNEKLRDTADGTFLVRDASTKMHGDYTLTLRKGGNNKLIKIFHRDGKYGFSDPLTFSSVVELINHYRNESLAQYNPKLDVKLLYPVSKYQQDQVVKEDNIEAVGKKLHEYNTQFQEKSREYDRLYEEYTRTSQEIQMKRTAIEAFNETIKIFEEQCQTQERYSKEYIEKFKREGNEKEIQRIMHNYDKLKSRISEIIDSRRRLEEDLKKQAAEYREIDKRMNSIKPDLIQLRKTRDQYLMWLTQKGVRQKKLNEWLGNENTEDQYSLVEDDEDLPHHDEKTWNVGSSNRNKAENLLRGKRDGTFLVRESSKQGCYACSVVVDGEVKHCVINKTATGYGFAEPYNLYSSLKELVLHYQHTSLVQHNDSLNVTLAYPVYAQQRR
Sequence of mTOR (human recombinant aa mTOR 1360-2549) (P42345 1360-2549): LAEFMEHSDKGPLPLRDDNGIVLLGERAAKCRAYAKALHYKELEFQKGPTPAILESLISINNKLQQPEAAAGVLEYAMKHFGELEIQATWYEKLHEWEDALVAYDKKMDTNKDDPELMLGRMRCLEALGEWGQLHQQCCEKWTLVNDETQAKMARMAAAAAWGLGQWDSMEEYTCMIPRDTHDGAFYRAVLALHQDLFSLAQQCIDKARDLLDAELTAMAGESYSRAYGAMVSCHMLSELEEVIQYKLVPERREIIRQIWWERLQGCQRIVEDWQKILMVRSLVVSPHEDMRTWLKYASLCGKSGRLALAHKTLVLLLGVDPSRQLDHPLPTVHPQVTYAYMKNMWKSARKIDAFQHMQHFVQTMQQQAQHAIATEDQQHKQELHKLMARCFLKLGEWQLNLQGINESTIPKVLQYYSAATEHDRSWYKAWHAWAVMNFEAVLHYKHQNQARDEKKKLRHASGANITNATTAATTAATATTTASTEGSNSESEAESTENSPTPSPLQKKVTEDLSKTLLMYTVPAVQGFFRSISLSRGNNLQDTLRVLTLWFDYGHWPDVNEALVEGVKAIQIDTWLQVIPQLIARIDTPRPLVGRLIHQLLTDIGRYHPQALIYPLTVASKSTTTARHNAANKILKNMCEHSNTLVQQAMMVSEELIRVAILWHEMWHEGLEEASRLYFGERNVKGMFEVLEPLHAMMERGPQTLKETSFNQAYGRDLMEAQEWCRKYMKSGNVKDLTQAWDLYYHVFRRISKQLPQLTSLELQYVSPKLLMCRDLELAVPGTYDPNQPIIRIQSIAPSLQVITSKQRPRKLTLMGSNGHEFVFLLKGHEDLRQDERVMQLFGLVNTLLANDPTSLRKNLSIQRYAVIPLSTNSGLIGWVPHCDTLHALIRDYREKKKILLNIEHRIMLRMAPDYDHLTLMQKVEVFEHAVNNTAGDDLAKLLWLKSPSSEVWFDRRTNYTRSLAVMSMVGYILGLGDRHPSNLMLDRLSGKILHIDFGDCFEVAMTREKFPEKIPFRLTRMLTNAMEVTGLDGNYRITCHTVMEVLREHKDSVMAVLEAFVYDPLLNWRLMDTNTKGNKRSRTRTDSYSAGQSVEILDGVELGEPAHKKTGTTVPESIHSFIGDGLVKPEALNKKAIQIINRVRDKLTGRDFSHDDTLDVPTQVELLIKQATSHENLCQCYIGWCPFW

In general, IC50 refers to the concentration at which inhibition is half-maximal. As for `CNC(=O)Nc1ccc(-c2nc(N3C4CCC3COC4)nc3c2C(=O)N(C)CC(C)(C)O3)cc1` [Example 43, 1-Methyl-3-{4-[6,8,8-trimethyl-2-(3-oxa-8-azabicyclo[3.2.1]oct-8-yl)-5-oxo-5,6,7,8-tetrahydro-9-oxa-1,3,6-triazabenzocyclohepten-4-yl]phenyl}urea], the IC50 in the experiment with Akt-pS473 in U87MG cells amounted to 20 nM. The pIC50 in the experiment on U87MG tumour cells is 7.09; in experiment [1], 7.57. Besides, the “PI3Ka IC50” value on PI3Kα (p110α/p85α) was 4730 nM.
On the same counts, the results for `COc1ccnc(NC(=O)Nc2ccc(-c3nc(N4C5CCC4COC5)nc4c3C(=O)N(C)CC(C)(C)O4)cc2)c1` [Example 70, 1-(4-Methoxypyridin-2-yl)-3-{4-[6,8,8-trimethyl-2-(3-oxa-8-azabicyclo[3.2.1]oct-8-yl)-5-oxo-5,6,7,8-tetrahydro-9-oxa-1,3,6-triazabenzocyclohepten-4-yl]phenyl}urea] are 40 nM, 6.54, 7.57 and above 10000 nM.
On the same counts, the results for `CCN1CC(C)(C)Oc2nc(N3CC4CCC(C3)O4)nc(-c3ccc(NC(=O)Nc4ccc(N5CC6CCC(C5)O6)cn4)cc3)c2C1=O` [Example 251, 1-{4-[6-Ethyl-8,8-dimethyl-2-(8-oxa-3-azabicyclo[3.2.1]oct-3-yl)-5-oxo-5,6,7,8-tetrahydro-9-oxa-1,3,6-triazabenzocyclohepten-4-yl]phenyl}-3-[5-(8-oxa-3-azabicyclo[3.2.1]oct-3-yl)pyridin-2-yl]urea] are 80 nM, 6.47, 7.19 and above 10000 nM.
For `CCN1CC(C)(C)Oc2nc(N3CC4CCC(C3)O4)nc(-c3ccc(Nc4nnc(-c5ccc(OC)nc5)[nH]4)c(F)c3)c2C1=O` [Example 183, 6-Ethyl-4-{3-fluoro-4-[5-(6-methoxypyridin-3-yl)-4H-[1,2,4]triazol-3-ylamino]phenyl}-8,8-dimethyl-2-(8-oxa-3-azabicyclo[3.2.1]oct-3-yl)-7,8-dihydro-6H-9-oxa-1,3,6-triazabenzocyclohepten-5-one] the same measures were 165 nM, 6.12, 6.89 and above 10000 nM.
With `CCN1CC(C)(C)Oc2nc(N3CC4CCC(C3)O4)nc(-c3ccc(NC(=O)Nc4ccc(N5CCN(C)CC5)cc4)cc3)c2C1=O` [Example 205, 1-{4-[6-Ethyl-8,8-dimethyl-2-(8-oxa-3-azabicyclo[3.2.1]oct-3-yl)-5-oxo-5,6,7,8-tetrahydro-9-oxa-1,3,6-triazabenzocyclohepten-4-yl]phenyl}-3-[4-(4-methylpiperazin-1-yl)phenyl]urea], in the experiment with Akt-pS473 in U87MG cells, the IC50 was found to be 13 nM. Besides, the pIC50 in the experiment with U87MG tumour cells is 7.66; in experiment [1], 7.20. Moreover, the “PI3Ka IC50” value on PI3Kα (p110α/p85α) is 3740 nM.
For `CCN1CC(C)(C)Oc2nc(N3CC4CCC(C3)O4)nc(-c3ccc(NC(=O)Nc4ccc(N5CCOC[C@H]5C)nc4)c(F)c3)c2C1=O` [Example 30, 1-{4-[6-ethyl-8,8-dimethyl-2-(8-oxa-3-azabicyclo[3.2.1]oct-3-yl)-5-oxo-5,6,7,8-tetrahydro-9-oxa-1,3,6-triazabenzocyclohepten-4-yl]-2-fluorophenyl}-3-[6-((R)-3-methylmorpholin-4-yl)pyridin-3-yl]urea] the same measures were 15 nM, 7.34, 7.68 and above 10000 nM.
For `Cc1cc(NC(=O)Nc2ccc(-c3nc(N4C5CCC4COC5)nc4c3C(=O)N(C)CC(C)(C)O4)cc2F)ccn1` [Example 59, 1-{2-Fluoro-4-[6,8,8-trimethyl-2-(3-oxa-8-azabicyclo[3.2.1]oct-8-yl)-5-oxo-5,6,7,8-tetrahydro-9-oxa-1,3,6-triazabenzocyclohepten-4-yl]phenyl}-3-(2-methylpyridin-4-yl)urea] the same measures were 36 nM, 7.38, 7.17 and 4200 nM.
For `CCN1CC(C)(C)Oc2nc(N3CC4CCC(C3)O4)nc(-c3ccc(NC(=O)Nc4cnc(N(C)C)cn4)c(F)c3)c2C1=O` [Example 234, 1-(5-Dimethylaminopyrazin-2-yl)-3-{4-[6-ethyl-8,8-dimethyl-2-(8-oxa-3-azabicyclo[3.2.1]oct-3-yl)-5-oxo-5,6,7,8-tetrahydro-9-oxa-1,3,6-triazabenzocyclohepten-4-yl]-2-fluorophenyl}urea] the same measures were 118 nM, 5.64, 7.17 and above 10000 nM.
Regarding `CCN1CC(C)(C)Oc2nc(N3CCOC[C@@H]3C)nc(-c3ccc(NC(=O)Nc4ccc(N5CCOCC5)cc4)c(F)c3)c2C1=O` [Example 227, 1-{4-[6-Ethyl-8,8-dimethyl-2-((S)-3-methylmorpholin-4-yl)-5-oxo-5,6,7,8-tetrahydro-9-oxa-1,3,6-triazabenzocyclohepten-4-yl]-2-fluorophenyl}-3-(4-morpholin-4-ylphenyl)urea], the IC50 in the experiment on Akt-pS473 in U87MG cells came to 7 nM. Besides, the pIC50 with U87MG tumour cells was 7.54; in experiment [1], 7.12. For the same molecule, on PI3Kα (p110α/p85α), the “PI3Ka IC50” value is listed as 484 nM.
On the same counts, the results for `COCCN1CC(C)(C)Oc2nc(N3CC4CCC(C3)O4)nc(-c3ccc(NC(=O)Nc4ccc(OC)nc4)cc3)c2C1=O` [Example 197, 1-{4-[6-(2-Methoxyethyl)-8,8-dimethyl-2-(8-oxa-3-azabicyclo[3.2.1]oct-3-yl)-5-oxo-5,6,7,8-tetrahydro-9-oxa-1,3,6-triazabenzocyclohepten-4-yl]phenyl}-3-(6-methoxypyridin-3-yl)urea] are 150 nM, 6.28, 6.93 and above 10000 nM.
For `CCN1CC(C)(C)Oc2nc(N3CC4CCC(C3)O4)nc(-c3ccc(NC(=O)Nc4ccc(C(F)(F)F)nc4)c(F)c3)c2C1=O` [Example 230, 1-{4-[6-Ethyl-8,8-dimethyl-2-(8-oxa-3-azabicyclo[3.2.1]oct-3-yl)-5-oxo-5,6,7,8-tetrahydro-9-oxa-1,3,6-triazabenzocyclohepten-4-yl]-2-fluorophenyl}-3-(6-trifluoromethylpyridin-3-yl)urea], the IC50 with Akt-pS473 in U87MG cells was found to be 18 nM. Further, the pIC50 in the experiment on U87MG tumour cells was 7.24; in experiment [1], 7.11. Besides, the “PI3Ka IC50” value on PI3Kα (p110α/p85α) is reported as above 10000 nM.
On the same counts, the results for `CCNC(=O)Nc1ccc(-c2nc(N3CC4CCC(C3)O4)nc3c2C(=O)N(CCC(=O)O)CC(C)(C)O3)cc1` [Example 7, 3-[4-[4-(3-Ethylureido)phenyl]-8,8-dimethyl-2-(8-oxa-3-azabicyclo[3.2.1]oct-3-yl)-5-oxo-7,8-dihydro-5H-9-oxa-1,3,6-triazabenzocyclohepten-6-yl]propionic acid] are above 3000 nM, below 5.00, 7.77 and above 10000 nM.
In the case of `COCCN1CC(C)(C)Oc2nc(N3CCOC[C@@H]3C)nc(-c3ccc(NC(=O)Nc4ccon4)cc3)c2C1=O` [Example 180, 1-Isoxazol-3-yl-3-{4-[6-(2-methoxyethyl)-8,8-dimethyl-2-((S)-3-methylmorpholin-4-yl)-5-oxo-5,6,7,8-tetrahydro-9-oxa-1,3,6-triazabenzocyclohepten-4-yl]phenyl}urea], in the experiment with Akt-pS473 in U87MG cells, the half-inhibitory concentration (IC50) came out at 65 nM. For the same molecule, the pIC50 with U87MG tumour cells was 6.84; in experiment [1] it was 7.96. Moreover, the “PI3Ka IC50” value at PI3Kα (p110α/p85α) was 604 nM.
On the same counts, the results for `CCN1CC(C)(C)Oc2nc(N3CCOC[C@@H]3C)nc(-c3ccc(NC(=O)Nc4ccc(C(=O)N5CCC(N(C)C)CC5)cc4)cc3)c2C1=O` [Example 23, 1-[4-(4-dimethylaminopiperidine-1-carbonyl)phenyl]-3-{4-[6-ethyl-8,8-dimethyl-2-((S)-3-methylmorpholin-4-yl)-5-oxo-5,6,7,8-tetrahydro-9-oxa-1,3,6-triazabenzocyclohepten-4-yl]phenyl}urea] are 62 nM, 7.52, 7.29 and 79 nM.
As to `CCN1CC(C)(C)Oc2nc(N3CC4CCC(C3)O4)nc(-c3ccc(NC(=O)OC)cc3)c2C1=O` [Example 105, {4-[6-Ethyl-8,8-dimethyl-2-(8-oxa-3-azabicyclo[3.2.1]oct-3-yl)-5-oxo-5,6,7,8-tetrahydro-9-oxa-1,3,6-triazabenzocyclohepten-4-yl]phenyl}carbamic acid methyl ester], in the experiment with Akt-pS473 in U87MG cells, the IC50 is 360 nM. The pIC50 with U87MG tumour cells is 5.57; in experiment [1] it was 6.74. In addition, the “PI3Ka IC50” value on PI3Kα (p110α/p85α) was above 10000 nM.
`CCN1CC(C)(C)Oc2nc(N3CC4CCC(C3)O4)nc(-c3ccc(NC(=O)Nc4ccc(F)cc4F)cc3)c2C1=O` [Example 19, 1-(2,4-difluorophenyl)-3-{4-[6-ethyl-8,8-dimethyl-2-(8-oxa-3-azabicyclo[3.2.1]oct-3-yl)-5-oxo-5,6,7,8-tetrahydro-9-oxa-1,3,6-triazabenzocyclohepten-4-yl]phenyl}urea]: the IC50 with Akt-pS473 in U87MG cells came to 28 nM. Also, the pIC50 was 6.91 with U87MG tumour cells and 7.49 in experiment [1]. Also, the “PI3Ka IC50” value at PI3Kα (p110α/p85α) turned out to be 6219 nM.
